From patent US20220409521A1, “COMPOSITION FOR COSMETICS” (FE:I BEAUTY TECH, INC., priority 2021, published 2022)

Tested on: Primary human dermal fibroblast (HDF) cells
Experiment: Ferritin induction in HDF cells (ferritin and protein by ELISA)
Type: cell-based
Conditions: Example 1; 5 μM in culture media, 18 hours; vs cells with no treatment
Method: Primary human dermal fibroblast (HDF) cells were cultured in Dulbecco's modified eagle medium (DMEM) with GlutaMAX™ and 10% Fetal Bovine Serum (FBS) and 1% Streptomycin (antibiotics). Before treatment, cells were seeded in a 12-well plate (1 ml culture media and surface area of the well is approximately 4.0 cm^2 per well) overnight. After washing twice with cold phosphate buffered saline (PBS), HDF cells were starved in 0.1% FBS for overnight. Subsequently, cells were treated with ferrous sulfate septahydrate (FeSO4·7H2O) at a final concentration of 5 μM for additional 18 hours. Cells with no treatment were used as a control. Cells were then washed with PBS and lysed. Levels of ferritin and protein were measured by using commercially available enzyme-linked immunosorbent assays (ELISA) kits and quantitated with standard curves constructed with human liver ferritin and human serum albumin as standards. The results were expressed as μg ferritin per mg protein and are show in FIG. 2.
The two iron oxides were premixed homogeneously in a 50% (v/v) of water and tertraethylene glycol and incubated at 3 mg/ml overnight at room temperature in a sodium acetate buffer (10 mM, pH 5.0), mimicking the pHs of acid rain or sweat. […] After the foregoing treatment, cells were collected and levels of ferritin and proteins in cells were measured and calculated as described in Example 1. […]

O.O.O.O.O.O.O.O=S(=O)([O-])[O-].[Fe+2] [ferrous sulfate, ferrous sulfate septahydrate (FeSO4·7H2O)]
increase in level of ferritin compared to the control: 570%
